# Source: patent publication US8987195B2 (priority 2012, dated 2015)
# Read-outs that look alike come from different tables or passages of the source.
# Assays:
# HCV genotype 1b replicon = test: HCV replicon assay, genotype 1b replicon EC50; assay type: cell-based, Hepatitis C virus; conditions: Hepatitis C virus, read-out: EC50 [gt-1b]
# Summary of the method: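 Stable neomycin-selected genotype 1b replicon cells, some carrying luciferase:Neo^r fusion, plated without G418 with a compound dilution series and incubated 24-48 h. Read-out was RNA (^32P-probe protection or TaqMan, normalized to cyclophilin A) or luciferase activity. EC50 from four-parameter fit as percent of DMSO control.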
# [1] = molecular target: HCV NS3/4A protease genotype 1b (Hepatitis C virus genotype 1b, UniProt P26663); test: HCV NS3/4A protease time-resolved fluorescence (TRF) assay, Ki against genotype 1b; assay type: biochemical
# Summary of the method: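 Time-resolved fluorescence readout of NS3/4A cleavage of 25 nM europium-labelled peptide over 2.5 h at room temperature, enzyme levels set for signal/background 10–30 (0.2, 0.4, 0.025 nM for 1b, A156T, 3a). Ki by IC50=Ki(1+[S]/KM).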
# [2] = IC50 [gt-1b], NS3/4A protease TRF assay, genotype 1b enzyme 0.2 nM
# [3] = IC50 [gt-1b] (nM), NS3/4A genotype 1b, enzyme 0.2 nM
Compound,EC50 (HCV genotype 1b replicon; genotype 1b replicon),"IC50 [1, 3]",also measured
"CC(C)COC(=O)N[C@H]1CCCCC/C=C\[C@@H]2C[C@@]2(C(=O)NS(=O)(=O)C2(C)CC2)NC(=O)[C@@H]2C[C@]3(CCc4c(c(C(F)(F)F)nc5ccc(OCF)cc45)O3)CN2C1=O [Example 491, 2-methylpropyl [(2R,6S,12Z,13aS,14aR,16aS)-9′-(fluoromethoxy)-14a-{[(1-methylcyclopropyl)sulfonyl]carbamoyl}-5,16-dioxo-5′-(trifluoromethyl)-1,1′,2′,5,6,7,8,9,10,11,13a,14,14a,15,16,16a-hexadecahydrospiro[cyclopropa[e]pyrrolo[1,2-a][1,4]diazacyclopentadecine-2,3′-pyrano[2,3-c]quinolin]-6-yl]carbamate]",–,–,"EC50 (HCV genotype 1b replicon; HCV replicon, genotype 1b, K+ salt): 2.53 nM; IC50 ([1]; IC50 [gt-1b], NS3/4A protease TRF assay, genotype 1b enzyme 0.2 nM, K+ salt): 0.003 nM"
"Cc1nc2ccc(OCCN3CCOCC3)cc2c2c1O[C@]1(CC2)C[C@H]2C(=O)N[C@]3(C(=O)NS(=O)(=O)C4(C)CC4)C[C@H]3/C=C\CCCCC[C@H](NC(=O)OC(C)(C)C)C(=O)N2C1 [Example 418, tert-butyl {(2R,6S,12Z,13aS,14aR,16aS)-5′-methyl-14a-{[(1-methylcyclopropyl)sulfonyl]carbamoyl}-9′-[2-(morpholin-4-yl)ethoxy]-5,16-dioxo-1,1′,2′,5,6,7,8,9,10,11,13a,14,14a,15,16,16a-hexadecahydrospiro[cyclopropa[e]pyrrolo[1,2-a][1,4]diazacyclopentadecine-2,3′-pyrano[2,3-c]quinolin]-6-yl}carbamate]",–,–,"EC50 (HCV genotype 1b replicon; HCV replicon, genotype 1b): 6.24 nM; IC50 [1, 2]: 0.008 nM"
"COc1ccc2nc(C)c3c(c2c1)CC[C@]1(C[C@H]2C(=O)N[C@]4(C(=O)NS(=O)(=O)C5(C)CC5)C[C@H]4/C=C\CCCCC[C@H](Nc4cccc(C)n4)C(=O)N2C1)O3 [Example 463, (2R,6S,12Z,13aS,14aR,16aS)-9′-methoxy-5′-methyl-N-[(1-methylcyclopropyl)sulfonyl]-6-[(6-methylpyridin-2-yl)amino]-5,16-dioxo-1,1′,2′,6,7,8,9,10,11,13a,14,15,16,16a-tetradecahydrospiro[cyclopropa[e]pyrrolo[1,2-a][1,4]diazacyclopentadecine-2,3′-pyrano[2,3-c]quinoline]-14a(5H)-carboxamide]",–,–,"EC50 (HCV genotype 1b replicon; HCV replicon, genotype 1b): 2.16 nM; IC50 [1, 2]: 0.057 nM"
"COc1ccc2c3c(c(C4CC4)nc2c1)O[C@]1(CC3)C[C@H]2C(=O)N[C@]3(C(=O)NS(=O)(=O)C4(C)CC4)C[C@H]3/C=C\CCCCC[C@H](NC(=O)OCCF)C(=O)N2C1 [Example 277, 2-fluoroethyl [(2R,6S,12Z,13aS,14aR,16aS)-5′-cyclopropyl-8′-methoxy-14a-{[(1-methylcyclopropyl)sulfonyl]carbamoyl}-5,16-dioxo-1,1′,2′,5,6,7,8,9,10,11,13a,14,14a,15,16,16a-hexadecahydrospiro[cyclopropa[e]pyrrolo[1,2-a][1,4]diazacyclopentadecine-2,3′-pyrano[2,3-c]quinolin]-6-yl]carbamate]",–,–,"EC50 (HCV genotype 1b replicon; genotype 1b replicon, HCOOH salt): 81.6 nM; IC50 ([1]; IC50 [gt-1b] (nM), NS3/4A genotype 1b, enzyme 0.2 nM, HCOOH salt): 1.05 nM"
"CCOC(=O)N[C@H]1CCCCC/C=C\[C@@H]2C[C@@]2(C(=O)NS(=O)(=O)C2(C)CC2)NC(=O)[C@@H]2C[C@]3(CCc4c(c(C(F)F)nc5ccccc45)O3)CN2C1=O [Example 329, ethyl [(2R,6S,12Z,13aS,14aR,16aS)-5′-(difluoromethyl)-14a-{[(1-methylcyclopropyl)sulfonyl]carbamoyl}-5,16-dioxo-1,1′,2′,5,6,7,8,9,10,11,13a,14,14a,15,16,16a-hexadecahydrospiro[cyclopropa[e]pyrrolo[1,2-a][1,4]diazacyclopentadecine-2,3′-pyrano[2,3-c]quinolin]-6-yl]carbamate]",12.2 nM,0.032 nM,–
"Cc1nc2ccccc2c2c1O[C@]1(CC2)C[C@H]2C(=O)N[C@]3(C(=O)NS(=O)(=O)C4(C)CC4)C[C@H]3/C=C\CCCCC[C@H](NC(=O)OC3CC(F)(F)C3(F)F)C(=O)N2C1 (stereo partly drawn) [Example 320, 2,2,3,3-tetrafluorocyclobutyl [(2R,6S,12Z,13aS,14aR,16aS)-5′-methyl-14a-{[(1-methylcyclopropyl)sulfonyl]carbamoyl}-5,16-dioxo-1,1′,2′,5,6,7,8,9,10,11,13a,14,14a,15,16,16a-hexadecahydrospiro[cyclopropa[e]pyrrolo[1,2-a][1,4]diazacyclopentadecine-2,3′-pyrano[2,3-c]quinolin]-6-yl]carbamate]",4.44 nM,0.013 nM,–
"COc1ccc2nc(C3CC3)c3c(c2c1)C(F)(F)C[C@]1(C[C@H]2C(=O)N[C@]4(C(=O)NS(=O)(=O)C5(C)CC5)C[C@H]4/C=C\CCCCC[C@H](NC(=O)O[C@@H](C)C(C)C)C(=O)N2C1)O3 [Example 250, (2S)-3-methylbutan-2-yl [(2S,6S,12Z,13aS,14aR,16aS)-5′-cyclopropyl-1′,1′-difluoro-9′-methoxy-14a-{[(1-methylcyclopropyl)sulfonyl]carbamoyl}-5,16-dioxo-1,1′,2′,5,6,7,8,9,10,11,13a,14,14a,15,16,16a-hexadecahydrospiro[cyclopropa[e]pyrrolo[1,2-a][1,4]diazacyclopentadecine-2,3′-pyrano[2,3-c]quinolin]-6-yl]carbamate]",6.5 nM,0.024 nM,–
"COc1ccc2nc(C)c3c(c2c1)C(F)(F)C[C@]1(C[C@H]2C(=O)N[C@]4(C(=O)NS(=O)(=O)C5(C)CC5)C[C@H]4/C=C\CCCCC[C@H](NC(=O)O[C@H](C)C(C)C)C(=O)N2C1)O3 [Example 263, (2R)-3-methylbutan-2-yl [(2S,6S,12Z,13aS,14aR,16aS)-1′,1′-difluoro-9′-methoxy-5′-methyl-14a-{[(1-methylcyclopropyl)sulfonyl]carbamoyl}-5,16-dioxo-1,1′,2′,5,6,7,8,9,10,11,13a,14,14a,15,16,16a-hexadecahydrospiro[cyclopropa[e]pyrrolo[1,2-a][1,4]diazacyclopentadecine-2,3′-pyrano[2,3-c]quinolin]-6-yl]carbamate]",–,–,"EC50 (HCV genotype 1b replicon; genotype 1b replicon, K+ salt): 5.3 nM; IC50 ([1]; IC50 [gt-1b] (nM), NS3/4A genotype 1b, enzyme 0.2 nM, K+ salt): 0.007 nM"
"CC(C)(C)COC(=O)N[C@H]1CCCCC/C=C\[C@@H]2C[C@@]2(C(=O)NS(=O)(=O)C2(C)CC2)NC(=O)[C@@H]2C[C@]3(CCc4c(c(C5CC5)nc5ccc6c(c45)OCO6)O3)CN2C1=O [Example 324, 2,2-dimethylpropyl [(2R,6S,12Z,13aS,14aR,16aS)-7′-cyclopropyl-14a-{[(1-methylcyclopropyl)sulfonyl]carbamoyl}-5,16-dioxo-1,5,6,7,8,9,10,10′,11,11′,13a,14,14a,15,16,16a-hexadecahydrospiro[cyclopropa[e]pyrrolo[1,2-a][1,4]diazacyclopentadecine-2,9′-[1,3]dioxolo[4,5-f]pyrano[2,3-c]quinolin]-6-yl]carbamate]",3.62 nM,0.022 nM,–
"CC(C)(C)OC(=O)N[C@H]1CCCCC/C=C\[C@@H]2C[C@@]2(C(=O)NS(=O)(=O)C2CC2)NC(=O)[C@@H]2C[C@]3(CCc4c(cnc5ccccc45)O3)CN2C1=O [Example 98, tert-butyl {(2R,6S,12Z,13aS,14aR,16aS)-14a-[(cyclopropylsulfonyl)carbamoyl]-5,16-dioxo-1,1′,2′,5,6,7,8,9,10,11,13a,14,14a,15,16,16a-hexadecahydrospiro[cyclopropa[e]pyrrolo[1,2-a][1,4]diazacyclopentadecine-2,3′-pyrano[2,3-c]quinolin]-6-yl}carbamate]",9.72 nM,0.057 nM,–
